According to PMC12059368 (Biomolecules & Therapeutics, 2024):
Where two headings read alike, the source gives them in different places.

What was measured:
[1] = ref Popiolek et al., 2021; cited from earlier work
APAP-induced ALI rats = test: Biochemical profile and tissue microscopy in APAP-induced ALI rats; type: in vivo, Sprague-Dawley rats
CYP3A1/2 = test: Immunoblot of hepatic microsomes, CYP3A1/2; type: in vivo, rat; conditions: RVT rats
[2] = intestinal microsomes, CON, RVT, ALI
[3] = Rat plasma protein binding of tofacitinib; type: in vitro ADME; conditions: for fraction unbound at 5 µg/mL: Sprague-Dawley, rat, plasma, Plasma protein binding
[4] = iv 10 mg/kg
in vivo = conditions: Sprague-Dawley, rat, plasma, iv, 10 mg/kg, CON rats (control)
[5] = ref Bannwarth et al., 2013, Dowty et al., 2014; cited from earlier work
[6] = In vitro metabolism of tofacitinib; type: in vitro ADME, rat; conditions: hepatic microsomes
[7] = RVT 50 mg/kg ip, ALI-RVT vs ALI rats, plasma
[8] = ALI-RVT rats (RVT 50 mg/kg ip 1.5 h before APAP)
[9] = oral 20 mg/kg, ALI rats (APAP 400 mg/kg ip)
[10] = oral 20 mg/kg, ALI-RVT rats (RVT 50 mg/kg ip 1.5 h before APAP)
[11] = oral 20 mg/kg, ALI-RVT vs ALI rats
[12] = oral 20 mg/kg, CON rats (control)
[13] = oral 20 mg/kg, RVT rats (RVT 50 mg/kg ip)

For CC(=O)Nc1ccc(O)cc1 [APAP, Acetaminophen], the Safe dose [1] is listed as “up to 2,000 mg per day”.

In the case of Oc1ccc(/C=C/c2cc(O)cc(O)c2)cc1 [RVT, Resveratrol], the “Liver and kidney histology” value (APAP-induced ALI rats; RVT 50 mg/kg ip, ALI-RVT rats) is reported as “alleviated tissue damage”, the “Decrease in GOT” value (APAP-induced ALI rats; [7]) is reported as 35.1% and the “Increase in total protein” value (APAP-induced ALI rats; [7]) is reported as 4.50%. The “Glutamate oxaloacetate transaminase levels” value (APAP-induced ALI rats; RVT administration in ALI rats) was “normalized” and the “CYP3A expression following RVT administration” value (CYP3A1/2) was “slightly decreased”.

With C[C@@H]1CCN(C(=O)CC#N)C[C@@H]1N(C)c1ncnc2[nH]ccc12 [tofacitinib, Tofacitinib] the “Vmax, Km, and CLint, comparison across the four groups” value [2] was “no significant differences”, the recovery at 30 min, 5 µg/mL ([3]; PBS in Nanosep 10 K centrifugal filter unit (no plasma), pH 7.4) was 99.7 ± 2.51% and the fraction unbound at 5 µg/mL ([3]; plasma of ALI rats) was 0.358. For the same molecule, the fraction unbound at 5 µg/mL ([3]; plasma of CON rats) was 0.363, the fraction unbound at 5 µg/mL ([3]; plasma of RVT rats) was 0.349 and the “Ae0-24 h (drug excreted unchanged in urine for 24 h)” value ([4]; ALI rats (APAP 400 mg/kg ip)) was 4.26 ± 2.87 % of dose. The “GI24 h (drug remaining in the gastrointestinal tract at 24 h)” value ([4]; ALI rats (APAP 400 mg/kg ip)) was 0.134 ± 0.0339 % of dose, the “Increase in AUC” value ([4]; ALI vs CON rats) was 207% and the “Increase in terminal half-life” value ([4]; ALI vs CON rats) was 113%. The “Reduction in CL” value ([4]; ALI vs CON rats) was 64.7%, the “Reduction in CLNR” value ([4]; ALI vs CON rats) was 66.1% and the “Ae0-24 h (drug excreted unchanged in urine for 24 h)” value [4, 8] was 9.25 ± 3.62 % of dose. For the same molecule, the “GI24 h (drug remaining in the gastrointestinal tract at 24 h)” value [4, 8] was 0.115 ± 0.0493 % of dose, the “Increase in Ae0-24 h” value ([4]; ALI-RVT vs ALI rats) was 117% and the “Increase in CL” value ([4]; ALI-RVT vs ALI rats) was 142%. The “Increase in CLNR” value ([4]; ALI-RVT vs ALI rats) was 141%, the “Increase in CLR” value ([4]; ALI-RVT vs ALI rats) was 398% and the “Reduction in AUC” value ([4]; ALI-RVT vs ALI rats) was 62.0%. For the same molecule, the Shorter terminal half-life ([4]; ALI-RVT vs ALI rats) was 38.0%, the “Ae0-24 h (drug excreted unchanged in urine for 24 h)” value ([4]; CON rats (control)) was 5.30 ± 1.91 % of dose and the “GI24 h (drug remaining in the gastrointestinal tract at 24 h)” value ([4]; CON rats (control)) was 0.108 ± 0.0444 % of dose. The “Ae0-24 h (drug excreted unchanged in urine for 24 h)” value ([4]; RVT rats (RVT 50 mg/kg ip)) was 7.31 ± 3.12 % of dose, the “GI24 h (drug remaining in the gastrointestinal tract at 24 h)” value ([4]; RVT rats (RVT 50 mg/kg ip)) was 0.147 ± 0.00805 % of dose and the AUC (in vivo) was 4.07 µg·h/mL. For the same molecule, the “Fraction of the oral dose metabolized by hepatic CYP3A4 and CYP2C19” value [5] was “Approximately 70%”, the “F values, comparison across the four groups” value (CON, RVT, ALI, ALI-RVT rats) was “similar” and the “Ae0-24 h (drug excreted unchanged in urine for 24 h)” value [9] was 3.04 ± 1.74 % of dose. For the same molecule, the “GI24 h (drug remaining in the gastrointestinal tract at 24 h)” value [9] was 0.743 ± 0.917 % of dose, the “Decrease in CLR” value (oral 20 mg/kg, ALI vs CON rats) was 76.4% and the “Increase in AUC” value (oral 20 mg/kg, ALI vs CON rats, 20 mg/kg) was 181%. The “Ae0-24 h (drug excreted unchanged in urine for 24 h)” value [10] was 6.41 ± 1.86 % of dose, the “GI24 h (drug remaining in the gastrointestinal tract at 24 h)” value [10] was 0.467 ± 0.243 % of dose and the “Decrease in AUC” value [11] was 41.4%. The “Increase in CLR” value [11] was 211%, the “Ae0-24 h (drug excreted unchanged in urine for 24 h)” value [12] was 4.72 ± 2.03 % of dose and the “GI24 h (drug remaining in the gastrointestinal tract at 24 h)” value [12] was 0.791 ± 1.06 % of dose. The “Ae0-24 h (drug excreted unchanged in urine for 24 h)” value [13] was 3.96 ± 2.11 % of dose, the “GI24 h (drug remaining in the gastrointestinal tract at 24 h)” value [13] was 0.295 ± 0.0618 % of dose and the GI24 h values (oral, both CON and ALI rats) was “less than 0.791 % of the oral dose”. For the same molecule, the “CLint lower than in CON rats” value ([6]; ALI rats) was 69.6%, the “CLint as % of CON values” ([6]; ALI-RVT rats) was 93.1% and the “Km values, comparison across all groups” value ([6]; CON, RVT, ALI, ALI-RVT) was “remained consistent”.
